Assay results from PMC5996983 (Environmental science & technology, 2017).

What was measured:
[1] = system: embryonic zebrafish (Danio rerio); experiment: Embryonic zebrafish developmental toxicity bioassay; details: for developmental toxicity to embryonic zebrafish: single compound standards, nominal 0.01 – 60 µM, exposure 6–120 hpf; for relative order of mean EC50: single standards, 120 hpf
alkene monooxygenase = experiment: Inhibition of PHE transformation in ELW1 by 1-octyne; format: cell-based, Mycobacterium sp. strain ELW1; details: ~7 µmol 1-octyne in the aqueous media
Mycobacterium sp. A1-PYR = details: cited from earlier work
[2] = 96-well plates ref 64; cited from earlier work
Mycobacterium sp. PYR-1 = details: cited from earlier work
Pasteurella spp. = details: cited from earlier work
[3] = system: Mycobacterium sp. strain ELW1; experiment: PHE transformation by ELW1, resting cell tests
[4] = system: Mycobacterium sp. strains PYRGCK, JS19b1, czh-3, czh-117; details: cited from earlier work
[5] = cited from earlier work

With O[C@@H]1c2ccccc2-c2ccccc2[C@H]1O (relative stereo) [trans-9,10-OHPHE, trans-9,10-dihydroxy-9,10-dihydrophenanthrene] the “developmental toxicity to embryonic zebrafish” value (“developmental toxicity” for short) [1] was “not toxic”.

In the case of Oc1cc2c(O)cccc2c2ccccc12 [1,9-OHPHE, 1,9-dihydroxyphenanthrene], the “developmental toxicity” value [1] is reported as “toxic” and the “relative order of mean EC50” value [1] is reported as “most toxic”.

For Oc1cccc2c1ccc1ccccc12 [1-OHPHE, 1-hydroxyphenanthrene], the “developmental toxicity” value [1] was “toxic” and the “relative order of mean EC50” value [1] was “least toxic”.

In the case of C#CCCCCCC [1-Octyne, 1-octyne], the “inhibition of PHE degradation” value (alkene monooxygenase) is reported as “effectively, but not completely, inhibited”.

With Oc1ccc2ccc3ccccc3c2c1 [3-OHPHE, 3-hydroxyphenanthrene] the “developmental toxicity” value [1] was “toxic”.

For Oc1cccc2ccc3ccccc3c12 [4-OHPHE, 4-hydroxyphenanthrene], the “developmental toxicity” value [1] was “toxic”.

For Oc1cc2ccccc2c2ccccc12 [9-OHPHE, 9-hydroxyphenanthrene], the “developmental toxicity” value [1] was “toxic”.

For c1ccc2c(c1)ccc1ccccc12 [PHE, phenanthrene], the zero-order transformation rate (Mycobacterium sp. A1-PYR) is listed as -0.019 µmol/h, the “sorptive losses in test system” value [2] is listed as “less than 10%” and the “non-normalized first-order rate of PHE transformation” value (Mycobacterium sp. PYR-1) is listed as -0.0015 h⁻¹. For the same compound, the “non-normalized first-order rate of PHE transformation” value (Pasteurella spp.) was -0.0005 h⁻¹, the “first-order PHE transformation rate, kPHE” value ([3]; 1-octyne controls) was 0.015 to 0.10 h⁻¹ and the “half-life, t1/2” value ([3]; 1-octyne controls) was 7.0 to 47 h. The “half-life, t1/2” value ([3]; PHE-exposed cells) was 1.4 to 4.3 h, the zero-order transformation rate [4] was −0.0020 to −0.019 µmol hr^−1 and the water solubility [5] was ~ 7 µM.
